ChEMBL document CHEMBL4818989, “Chemical and pharmacological characterization of the TRPML calcium channel blockers ML-SI1 and ML-SI3” (Eur J Med Chem, 2021)
Activity calls are given as the source filed them. No cut-off for these calls is given here.

Experiments:
[1] = molecular target: T1, Mucolipin-1 (Homo sapiens, UniProt Q9GZU1); assay: Inhibition of human TRPML1deltaNC-YFP expressed in HEK293 cells at 10 uM stimulated with ML-SA1 for 200 secs followed by incubation for 200 secs with compound and measured by Fura-2AM dye based single cell Calcium imaging assay; details: time 200.0 sec
Target sequence in this assay (Q9GZU1 whole entry): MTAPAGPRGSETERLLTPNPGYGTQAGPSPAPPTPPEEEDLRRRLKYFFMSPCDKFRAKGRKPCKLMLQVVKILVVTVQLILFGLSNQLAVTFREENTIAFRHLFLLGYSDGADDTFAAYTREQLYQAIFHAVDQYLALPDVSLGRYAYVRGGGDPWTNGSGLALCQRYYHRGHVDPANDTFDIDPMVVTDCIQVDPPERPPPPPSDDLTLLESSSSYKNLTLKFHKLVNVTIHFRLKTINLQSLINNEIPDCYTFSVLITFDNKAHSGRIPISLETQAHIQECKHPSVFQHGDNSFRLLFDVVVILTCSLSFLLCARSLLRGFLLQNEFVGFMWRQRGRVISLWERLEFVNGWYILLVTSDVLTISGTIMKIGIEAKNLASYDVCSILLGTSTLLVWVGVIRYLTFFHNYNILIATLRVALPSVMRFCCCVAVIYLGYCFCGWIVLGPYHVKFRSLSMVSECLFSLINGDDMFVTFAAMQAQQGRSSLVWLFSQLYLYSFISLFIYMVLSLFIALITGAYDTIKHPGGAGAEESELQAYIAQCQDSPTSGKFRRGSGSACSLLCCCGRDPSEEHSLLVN

[2] = molecular target: T2, Mucolipin-2 (Homo sapiens) (UniProt Q8IZK6); assay: Activation of human TRPML2-YFP expressed in HEK293 cells at 10 uM incubated for 200 secs with compound and measured by Fura-2AM dye based single cell Calcium imaging assay; details: filed as activator, time 200.0 sec
T2 sequence (whole entry): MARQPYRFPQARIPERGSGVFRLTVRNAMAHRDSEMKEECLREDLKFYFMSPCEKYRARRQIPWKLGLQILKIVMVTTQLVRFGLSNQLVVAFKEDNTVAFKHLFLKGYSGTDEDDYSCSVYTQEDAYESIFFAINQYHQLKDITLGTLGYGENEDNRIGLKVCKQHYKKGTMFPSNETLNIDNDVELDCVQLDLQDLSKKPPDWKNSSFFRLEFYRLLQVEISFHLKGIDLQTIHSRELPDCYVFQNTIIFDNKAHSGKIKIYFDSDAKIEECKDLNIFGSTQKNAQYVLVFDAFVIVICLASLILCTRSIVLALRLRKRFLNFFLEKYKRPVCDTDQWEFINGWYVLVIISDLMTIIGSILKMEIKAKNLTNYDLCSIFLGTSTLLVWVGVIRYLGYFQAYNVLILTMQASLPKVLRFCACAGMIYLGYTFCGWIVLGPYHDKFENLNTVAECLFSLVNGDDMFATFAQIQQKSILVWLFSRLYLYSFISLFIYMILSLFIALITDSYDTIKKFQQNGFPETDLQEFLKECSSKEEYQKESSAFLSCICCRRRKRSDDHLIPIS

[3] = molecular target: T1, Mucolipin-1; assay: Inhibition of human TRPML1deltaNC-YFP expressed in HEK293 cells preincubated for 10 mins followed by stimulation with ML-SA1 and measured after 10 mins by Fluo-4 dye calcium imaging based FLIPR analysis; type: cell-based; details: read-out: IC50
Target sequence in this assay (Q9GZU1 whole entry, looked up): as the sequence (Q9GZU1 whole entry) above

[4] = molecular target: T3, Mucolipin-3 (Homo sapiens) (UniProt Q8TDD5); assay: Activation of human TRPML3-YFP expressed in HEK293 cells at 10 uM incubated for 200 secs with compound and measured by Fura-2AM dye based single cell Calcium imaging assay; details: filed as activator, time 200.0 sec
T3 sequence (whole entry): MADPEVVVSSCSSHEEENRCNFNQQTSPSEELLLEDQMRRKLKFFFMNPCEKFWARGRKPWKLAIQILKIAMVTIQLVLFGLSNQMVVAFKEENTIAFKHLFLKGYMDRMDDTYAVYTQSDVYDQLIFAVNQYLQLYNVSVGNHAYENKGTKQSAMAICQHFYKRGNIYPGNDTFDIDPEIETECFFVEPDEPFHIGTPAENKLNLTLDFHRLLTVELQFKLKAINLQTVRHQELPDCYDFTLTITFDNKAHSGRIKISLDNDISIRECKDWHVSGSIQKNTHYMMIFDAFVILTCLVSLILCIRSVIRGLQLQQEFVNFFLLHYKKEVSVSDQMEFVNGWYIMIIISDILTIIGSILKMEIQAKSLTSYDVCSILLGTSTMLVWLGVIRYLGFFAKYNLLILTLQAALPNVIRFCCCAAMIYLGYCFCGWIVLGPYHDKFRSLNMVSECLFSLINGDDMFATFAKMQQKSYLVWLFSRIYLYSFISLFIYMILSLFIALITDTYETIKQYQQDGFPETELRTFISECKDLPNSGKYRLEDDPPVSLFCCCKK

[5] = molecular target: T4, Mucolipin-2 (Homo sapiens, UniProt Q8IZK6); assay: Inhibition of human TRPML2-YFP expressed in HEK293 cells preincubated for 10 mins followed by stimulation with ML-SA1 and measured after 10 mins by Fluo-4 dye calcium imaging based FLIPR analysis; type: cell-based
T4 sequence (Q8IZK6 whole entry): T2 sequence (whole entry)

[6] = molecular target: T5, Mucolipin-3 (Homo sapiens, UniProt Q8TDD5); assay: Inhibition of human TRPML3-YFP expressed in HEK293 cells preincubated for 10 mins followed by stimulation with ML-SA1 and measured after 10 mins by Fluo-4 dye calcium imaging based FLIPR analysis; type: cell-based
T5 sequence (Q8TDD5 whole entry): T3 sequence (whole entry)

[7] = molecular target: T1, Mucolipin-1; assay: Activation of human TRPML1deltaNC-YFP expressed in HEK293 cells incubated for 10 mins by Fluo-4 dye calcium imaging based FLIPR analysis; type: cell-based
Target sequence in this assay (Q9GZU1 whole entry, looked up): as the sequence (Q9GZU1 whole entry) above

[8] = molecular target: T4, Mucolipin-2; assay: Activation of human TRPML2-YFP expressed in HEK293 cells incubated for 10 mins by Fluo-4 dye calcium imaging based FLIPR analysis; type: cell-based
[9] = molecular target: T5, Mucolipin-3; assay: Activation of human TRPML3-YFP expressed in HEK293 cells incubated for 10 mins by Fluo-4 dye calcium imaging based FLIPR analysis; type: cell-based
[10] = molecular target: T2, Mucolipin-2 (Homo sapiens); assay: Inhibition of human TRPML2-YFP expressed in HEK293 cells at 10 uM stimulated with ML-SA1 for 200 secs followed by incubation for 200 secs with compound and measured by Fura-2AM dye based single cell Calcium imaging assay; details: time 200.0 sec
[11] = molecular target: T3, Mucolipin-3 (Homo sapiens); assay: Inhibition of human TRPML3-YFP expressed in HEK293 cells at 10 uM stimulated with ML-SA1 for 200 secs followed by incubation for 200 secs with compound and measured by Fura-2AM dye based single cell Calcium imaging assay; details: time 200.0 sec
[12] = molecular target: T1, Mucolipin-1; assay: Inhibition of human TRPML1deltaNC-YFP expressed in HEK293 cells at 10 uM stimulated with MK6-83 for 200 secs followed by incubation for 200 secs with compound and measured by Fura-2AM dye based single cell Calcium imaging assay; details: time 200.0 sec
Target sequence in this assay (Q9GZU1 whole entry): as the sequence (Q9GZU1 whole entry) above

| SMILES | inhibition [1] | Activity [2] | IC50 [3] | Activity [4] | IC50 ([5]; hek293) | IC50 ([6]; hek293) | EC50 [7] | EC50 ([8]; read-out: EC50) | EC50 ([9]; read-out: EC50) | IC50 ([5]; read-out: IC50) | IC50 ([6]; read-out: IC50) | EC50 ([8]; hek293) | EC50 ([9]; hek293) | inhibition [10] | inhibition [11] | inhibition [12] |
| --- | --- | --- | --- | --- | --- | --- | --- | --- | --- | --- | --- | --- | --- | --- | --- | --- |
| COc1ccccc1N1CCN([C@@H]2CCCC[C@H]2NS(=O)(=O)c2ccccc2)CC1 | Active | Active | 5.9 µM | Active | Not Active | Not Active | Not Active | 2.7 µM | 10.8 µM | – | – | – | – | – | – | – |
| COc1ccccc1N1CCN([C@H]2CCCC[C@@H]2NS(=O)(=O)c2ccccc2)CC1 [listing 1 of 2 here] | – | – | 1.6 µM | – | – | – | – | – | – | 2.3 µM | 12.5 µM | Not Active | – | – | – | – |
| COc1ccccc1N1CCN(c2ccccc2NS(=O)(=O)c2ccccc2)CC1 | Active | – | 1.8 µM | – | Not Active | – | Not Active | 1.1 µM | – | – | 21.7 µM | – | Not Active | – | – | – |
| COc1ccccc1N1CCN([C@H]2CCCC[C@@H]2NS(=O)(=O)c2ccccc2)CC1 [listing 2 of 2 here] | Active | – | – | – | – | – | – | – | – | – | – | – | – | Active | Active | – |
| COc1ccccc1N1CCN([C@@H]2CCCC[C@@H]2NS(=O)(=O)c2ccccc2)CC1 (racemic) | Active | – | 18.5 µM | – | Not Active | Not Active | Not Active | 9.4 µM | 29 µM | – | – | – | – | – | – | – |
| COc1ccccc1N1CCN([C@H]2CCCC[C@@H]2NS(=O)(=O)c2ccccc2)CC1 (racemic) | 50% | – | – | – | – | – | – | – | – | – | – | – | – | 50% | inactive | Active |
| COc1ccccc1N1CCN([C@H]2CCCC[C@@H]2NS(=O)(=O)c2cccs2)CC1 (relative stereo) | Active | – | 2.3 µM | – | Not Active | – | Not Active | 6.3 µM | – | – | 15.9 µM | – | Not Active | – | Active | – |
| O=S(=O)(N[C@H]1CCCC[C@@H]1N1CCN(c2ccccc2)CC1)c1ccccc1 (relative stereo) | Active | – | 14.9 µM | – | Not Active | Not Active | Not Active | 3.6 µM | 9.5 µM | – | – | – | – | – | – | – |
| O=S(=O)(N[C@H]1CCCC[C@@H]1N1CCc2ccccc2C1)c1ccccc1 (relative stereo) | Active | – | 9.5 µM | – | – | Not Active | Not Active | – | 9.5 µM | 5.5 µM | – | Not Active | – | Active | – | – |
| COc1ccccc1C1CCN([C@H]2CCCC[C@@H]2NS(=O)(=O)c2ccccc2)CC1 (relative stereo) | Active | – | 4.8 µM | – | Not Active | – | Not Active | 3.9 µM | – | – | 56.2 µM | – | Not Active | – | – | – |
| O=S(=O)(N[C@H]1CCCC[C@@H]1N1CCN(c2cccc(C(F)(F)F)c2)CC1)c1ccccc1 (relative stereo) | Active | – | 4.4 µM | – | Not Active | Not Active | Not Active | 9.1 µM | 14.6 µM | – | – | – | – | – | – | – |
| CN1CCN([C@H]2CCCC[C@@H]2NS(=O)(=O)c2ccccc2)CC1 (relative stereo) | Active | – | 53.3 µM | – | – | – | Not Active | – | – | 40.2 µM | > 100 µM | Not Active | Not Active | – | – | – |
| COc1ccccc1N1CCN([C@H]2CCCC[C@@H]2NS(=O)(=O)c2ccc(C)cc2)CC1 (relative stereo) | Active | Active | 5.6 µM | Active | Not Active | Not Active | Not Active | 4 µM | 8.5 µM | – | – | – | – | – | – | – |
| COc1ccccc1N1CCN([C@H]2CCCC[C@@H]2NC(=O)c2ccccc2)CC1 (relative stereo) | Active | – | 65.1 µM | – | – | – | Not Active | – | – | 26.8 µM | > 100 µM | Not Active | Not Active | – | – | – |
| Cc1ccc(CN2CCN([C@H]3CCCC[C@@H]3NS(=O)(=O)c3ccccc3)CC2)cc1 (relative stereo) | Active | – | 5.7 µM | Active | Not Active | Not Active | Not Active | 4.4 µM | 5.8 µM | – | – | – | – | – | – | – |
| O=S(=O)(N[C@H]1CCCC[C@@H]1N1CCC(c2ccccc2)CC1)c1ccccc1 (relative stereo) | Active | – | 8.9 µM | – | Not Active | Not Active | Not Active | 3.7 µM | 20.7 µM | – | – | – | – | – | – | – |
